Columns and labels:
PcGSTd1 [1] = biological target: T1, PcGSTd1 (Panonychus citri, UniProt H9BTE1); test: CDNB-GSH conjugation, absorbance […] nm, Lineweaver-Burk; format: biochemical; conditions: co-substrate GSH; 28 C
T1 construct: full ORF in pET-28a (BamHI/NotI), His-tag kept (Ni-NTA), E. coli TransBL21(DE3); EC 2.5.1.18
T1 sequence (H9BTE1 1-217): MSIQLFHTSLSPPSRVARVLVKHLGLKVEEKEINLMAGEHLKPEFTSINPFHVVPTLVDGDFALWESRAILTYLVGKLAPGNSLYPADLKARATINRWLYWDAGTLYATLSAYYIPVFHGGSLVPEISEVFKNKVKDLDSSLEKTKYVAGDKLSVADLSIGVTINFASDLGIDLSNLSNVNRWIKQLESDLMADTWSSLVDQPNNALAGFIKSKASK

PcGSTd1 [2] = biological target: T1, PcGSTd1; test: CDNB-GSH conjugation, absorbance […] nm; format: biochemical; conditions: 0.6 mM CDNB, 5 mM GSH, 0.05 M Tris-HCl pH 7.5; ECA 0.05-2 mM

SMILES	Km (PcGSTd1 [1])	IC50 (PcGSTd1 [2])
O=[N+]([O-])c1ccc(Cl)c([N+](=O)[O-])c1 [1-chloro-2,4-dinitrobenzene]	1820 ± 490 µM	–
C=C(CC)C(=O)c1ccc(OCC(=O)O)c(Cl)c1Cl [ethacrynic acid]	–	1130 ± 120 µM

Reference: article PMC5884870, “Antioxidant Role of PcGSTd1 in Fenpropathrin Resistant Population of the Citrus Red Mite, Panonychus citri (McGregor)” (Frontiers in Physiology, 2018)
